Laboratory results: article PMC8587465, “Naturally Available Flavonoid Aglycones as Potential Antiviral Drug Candidates against SARS-CoV-2” (Molecules, 2021)
In brackets after ≈: the same amount, converted by molar mass. Like-named read-outs stand apart in the source and are kept apart here.

Experiments:
[1] = tested on: SARS-CoV-2 "NRC-03-nhCoV" virus; test: In vitro anti-SARS-CoV-2 activity, IC50 by reduction of virus-induced cytopathic effect in Vero-E6 cells; assay type: cell-based; conditions: read-out: inhibitory concentration 50% (IC50) against NRC-03-nhCoV
[2] = Cytotoxicity (CC50) determination, crystal violet assay; assay type: cell-based; conditions: African green monkey
Method: To assess the half-maximal cytotoxic concentration (CC50), stock solutions of the compounds were prepared in 10% DMSO in ddH2O and diluted further to the working solutions with DMEM. The cytotoxic activity of the extracts was tested in VERO-E6 cells by using a crystal violet assay, as previously described with minor modifications. Briefly, the cells were seeded in 96 well-plates (100 µL/well at a density of 3 × 10^5 cells/mL) and incubated for 24 h at 37 °C in 5% CO2. Control cells were treated with 1% DMSO in DMEM (the concentration of DMSO in the highest concentration of the tested samples). After 24 h, the cells were treated with various concentrations of the compounds in triplicates. After 72 h, the supernatant was discarded, and the cell monolayers were fixed with 10% formaldehyde for 1 h at room temperature (RT). The fixed monolayers were, then, dried and stained with 50 µL of 0.1% crystal violet for 20 min on a bench rocker at RT. The monolayers were, then, washed and dried, and the crystal violet dye in each well was dissolved with 200 µL methanol for 20 min on a bench rocker at RT. […]
All experiments were performed in three biological repeats. […] The IC50 and CC50 curves represent the nonlinear fit of “normalize” of “transform” of the obtained data; their values were calculated using GraphPad prism as “best fit value”.

[3] = tested on: SARS-CoV-2 Mpro; conditions: stated in the abstract for the reference standard; method and reference not given; cited from earlier work
[4] = Severe acute respiratory syndrome coronavirus 2, Vero C1008, 72 h

What does the source list for COc1ccc(-c2cc(=O)c3c(O)c(OC)c(OC)c(OC)c3o2)cc1 [Compound 4, Gardenin B]?
IC50 ([1]; Severe acute respiratory syndrome coronavirus 2, Vero C1008, Vero-E6 cells, 100 TCID50, 72 h, CPE reduction): 128 µg/mL (≈ 357 µM); CC50 at 72 h [2]: 14100 µg/mL (≈ 39400 µM)

Which IC50 [3] does the source give for CC(C)(C)OC(=O)Nc1cccn(C(CC2CC2)C(=O)NC(CC2CCNC2=O)C(=O)C(=O)NCc2ccccc2)c1=O (stereo not shown) [KI] here?
The IC50 was 66.72 µg/mL (≈ 112 µM).

Which IC50 [1, 4] does the source give for COc1ccc(-c2cc(=O)c3c(OC)c(OC)c(OC)c(OC)c3o2)cc1 [Compound 3, Tangeretin] here?
The IC50 was 2.5 µg/mL (≈ 6.71 µM).

Which IC50 [1, 4] does the source give for COc1ccc(-c2cc(=O)c3c(O)c(OC)c(O)cc3o2)cc1 [Compound 2, Pectolinarigenin] here?
The IC50 was 12.4 µg/mL (≈ 39.5 µM).

What does the source list for COc1c(O)cc2oc(-c3ccc(O)cc3)cc(=O)c2c1O [Compound 5, Hispidulin]?
IC50 [1, 4]: 883 µg/mL (≈ 2940 µM); CC50 at 72 h ([2]; Vero E6 cells, 72 h, crystal violet, read-out: half-maximal cytotoxic concentration (CC50)): 14100 µg/mL (≈ 47100 µM)
